Where two headings read alike, the source gives them in different places.
Legend:
5-HT1A = molecular target: T1, 5-HT1A (Homo sapiens, UniProt P08908)
T1 sequence (P08908 1-422): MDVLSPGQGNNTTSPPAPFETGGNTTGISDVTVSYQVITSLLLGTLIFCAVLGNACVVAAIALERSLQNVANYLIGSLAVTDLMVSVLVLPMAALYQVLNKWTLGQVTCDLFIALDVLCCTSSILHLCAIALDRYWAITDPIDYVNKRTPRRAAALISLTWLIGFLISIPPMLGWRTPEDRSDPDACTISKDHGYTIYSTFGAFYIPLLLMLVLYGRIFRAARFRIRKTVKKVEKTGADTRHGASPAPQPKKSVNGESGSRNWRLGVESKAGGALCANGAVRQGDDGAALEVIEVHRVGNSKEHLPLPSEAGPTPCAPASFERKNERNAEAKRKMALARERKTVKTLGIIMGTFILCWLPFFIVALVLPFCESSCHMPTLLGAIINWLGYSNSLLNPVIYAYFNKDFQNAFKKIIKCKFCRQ

*1^A = details: Table 4; cited from earlier work
D2 = D2 (Homo sapiens, UniProt P14416); details: read-out: Ki (nM) D2; Table 2; cited from earlier work
Chain of D2 (P14416 whole entry): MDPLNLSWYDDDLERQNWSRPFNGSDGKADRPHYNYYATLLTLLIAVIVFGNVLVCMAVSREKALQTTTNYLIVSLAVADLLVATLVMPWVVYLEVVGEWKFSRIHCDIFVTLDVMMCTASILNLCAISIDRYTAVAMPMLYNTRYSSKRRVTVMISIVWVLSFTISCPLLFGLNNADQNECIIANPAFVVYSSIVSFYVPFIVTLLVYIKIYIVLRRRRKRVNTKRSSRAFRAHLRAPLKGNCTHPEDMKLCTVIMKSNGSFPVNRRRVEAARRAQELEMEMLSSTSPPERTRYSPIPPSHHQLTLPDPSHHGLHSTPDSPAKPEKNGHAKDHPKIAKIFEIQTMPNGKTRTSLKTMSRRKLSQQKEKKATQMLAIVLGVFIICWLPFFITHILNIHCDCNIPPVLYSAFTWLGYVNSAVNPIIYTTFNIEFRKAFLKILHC

a1 = details: Table 2; cited from earlier work
recognition memory [1] = assay: Novel Object Recognition Model (Example 1); assay type: in vivo, rats; details: for effect on the cognitive enhancing properties of Aricept in the Novel Object Recognition Model: co-administered with Aricept, lowers dose of both agents required for efficacy
Protocol: (§1) Novel Object Recognition Model: Male Long-Evans hooded rats (˜200 g at the time of testing) were individually housed with ad libitum access to food and water. Novel object recognition (NOR) training and testing was performed in a circular field (diameter ˜70 cm, 30 cm high) constructed out of plastic and containing soiled bedding (without feces). The field was surrounded by black curtains to mask extra-field cues and was located in a dimly lit room (˜10 lux at the level of the area) in the presence of white noise (˜65 dB). Animal performance was tracked by video and monitored by an experimenter located outside of the testing room. Objects, constructed with Duplo® blocks (Lego), could be affixed to the floor in one of four locations spaced evenly around the field approximately 10 cm from the field's edge. To avoid possible olfactory cues, multiple copies of the objects were used throughout the study and were cleaned with a 30% ethanol solution between animals.
The visual recognition task was divided into 3 sessions—habituation, a sample trial and a choice trial. During habituation the animals were placed into the field containing 2 identical yellow cubes (˜10 cm×10 cm×10 cm) and were allowed to explore the field for ten minutes. Following habituation, rats were returned to their home cage. One day after habituation, animals were dosed with drug (either a 5-HT1A antagonist compound, a cognitive enhancer or both a 5-HT1A antagonist compound and a cognitive enhancer) and following the pretreatment interval the sample trial was initiated. […] The amount of time investigating the objects was recorded for the entire trial. […]
(§2) The effect of treatment on object exploration during trial one was examined using a one-way ANOVA on total contact time followed by Fisher's LSD group mean pair-wise comparisons. The amount of time exploring the novel and familiar objects across treatment groups was analyzed using a repeated measures ANOVA followed by Fisher's LSD post-hoc comparisons. […]

5-HT2A = 5-HT2A (Homo sapiens, UniProt P28223); details: read-out: Ki (nM) 5-HT2A; Table 1; cited from earlier work
Chain of 5-HT2A (P28223 whole entry): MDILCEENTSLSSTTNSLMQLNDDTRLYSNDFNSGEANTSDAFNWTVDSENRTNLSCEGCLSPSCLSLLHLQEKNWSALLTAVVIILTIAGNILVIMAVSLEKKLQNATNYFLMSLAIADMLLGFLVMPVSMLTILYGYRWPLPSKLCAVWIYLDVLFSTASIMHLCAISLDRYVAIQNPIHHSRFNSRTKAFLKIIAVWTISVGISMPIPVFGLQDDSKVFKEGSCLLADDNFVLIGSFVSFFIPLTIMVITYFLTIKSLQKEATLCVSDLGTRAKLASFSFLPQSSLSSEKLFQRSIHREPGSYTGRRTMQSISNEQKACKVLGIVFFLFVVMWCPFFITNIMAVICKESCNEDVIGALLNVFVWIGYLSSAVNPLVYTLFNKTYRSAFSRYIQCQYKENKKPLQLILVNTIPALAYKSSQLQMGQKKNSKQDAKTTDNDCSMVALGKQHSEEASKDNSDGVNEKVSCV

recognition memory [2] = assay: Novel Object Recognition, Compound 405 with Aricept (Example 2); assay type: in vivo, mice; details: compared between vehicle, Aricept 0.5 mg/kg, Compound 405 0.3 mg/kg and combination groups
Protocol: as §1, with “Objects, constructed with Duplo® blocks (Lego), could be affixed to the floor in one of four locations spaced evenly around the field approximately 10 cm from the field's edge. To avoid possible olfactory cues, multiple copies of the objects were used throughout the study and were cleaned with a 30% ethanol solution between animals.” left out
The visual recognition task was divided into 3 sessions—habituation, a sample trial and a choice trial. […] The amount of time investigating the objects was recorded for the entire trial. […]
as §2
Cognitive enhancement was measured using the Novel Object Recognition procedure described in Example 1. […]

[3] = read-out: Ki (nM) 5-HT1A; Table 4; cited from earlier work
[4] = Table 2; read-out: Ki (nM) 5-HT1A; cited from earlier work
[5] = read-out: Ki (nM) 5-HT1A; Table 2; cited from earlier work
[6] = Table 3; read-out: IC50 (nM) 5-HT1A; cited from earlier work

In the case of `COc1ccccc1N1CCN(CCCSc2nc3sc4c(c3c(=O)n2N)CCC4)CC1` [Compound 129], the Ki (5-HT1A; [3]) is given as 9.26 nM and the Ki (*1^A) is given as 7.39 nM.
In the case of `COc1ccccc1N1CCN(CCCSc2nc(N)c3c(C)c(C)sc3n2)CC1` [Compound 135], the Ki (5-HT1A; [3]) is given as 2.45 nM and the Ki (*1^A) is given as 10.8 nM.
For `COc1ccccc1N1CCN(CCN(C(=O)c2cccc(I)c2)c2ccccn2)CC1` [Compound 125], the Ki (5-HT1A; [4]) is listed as 1.7 nM.
In the case of `COc1ccccc1N1CCN(CN(C(=O)C2CCCCC2)c2ccccn2)CC1` [Compound X], the Ki (5-HT1A; [5]) is listed as 0.24 nM, the Ki (D2) is listed as 79 nM and the Ki (a1) is listed as 45 nM.
For `COc1ccccc1N1CCN(CC(C(=O)NC(C)(C)C)c2ccccc2)CC1` (racemic) [Compound Y (S)], the Ki (5-HT1A; [5]) is given as 22 nM, the Ki (D2) is given as 20 nM and the Ki (a1) is given as 1440 nM.
For `COc1cc(N2CCN(C3CCN(c4ccc(F)c5cccnc45)CC3)CC2)c2ncccc2c1` [5-fluoro-8-(4-(4-(6-methoxyquinolin-8-yl)piperazin-1-yl)piperidin-1-yl)quinoline], the “effect on the cognitive enhancing properties of Aricept in the Novel Object Recognition Model” value (recognition memory [1]) was “synergistic effect”.
In the case of `O=C(C1CCCCC1)N(CN1CCN(c2ccccc2O)CC1)c1ccccn1` [Compound 119], the IC50 (5-HT1A; Table 2, starred value; read-out: 5-HT1A, data expressed as IC50 value (*); cited from earlier work) is listed as 2.1 nM.
For `OC1(c2ccc3c(c2)OCO3)CCC(N2CCN(Cc3ccccc3)CC2)CC1` (stereo not shown) [Compound 112], the IC50 (5-HT1A; [6]) is given as 20 nM.
For `COc1ccccc1N1CCN(CC(C(=O)NC(C)(C)C)c2ccccc2)CC1` (racemic) [Compound Y (R)], the Ki (5-HT1A; [5]) is listed as 104 nM, the Ki (D2) is listed as 4 nM and the Ki (a1) is listed as 1240 nM.
In the case of `COc1cccc(CN2CCN(C3CCC(O)(c4ccc5c(c4)OCO5)CC3)CC2)c1` (stereo not shown) [Compound 114], the IC50 (5-HT1A; [6]) is given as 2.2 nM.
With `COc1cc(N2CCN(C3CCN(c4ccc(F)c5c(OC)cc(C(F)(F)F)nc45)CC3)CC2)c2ncccc2c1` [5-fluoro-4-methoxy-8-(4-(4-(6-methoxyquinolin-8-yl)piperazin-1-yl)piperidin-1-yl)-2-(trifluoromethyl)quinoline] the “effect on the cognitive enhancing properties of Aricept in the Novel Object Recognition Model” value (recognition memory [1]) was “synergistic effect”.
For `COc1ccccc1N1CCN(CCN(C(=O)c2ccc(F)cc2)c2ccccn2)CC1` [Compound 127], the Ki (5-HT1A; [4]) is given as 3.3 nM.
For `O=c1ccc(=O)n(-c2ccccc2)n1CCCCN1CCN(c2cccc(Cl)c2)CC1` [Compound 104], the Ki (5-HT2A) is listed as 1830 nM.
With `COc1cc2c(cc1OC)C(=O)C(CC1CCN(Cc3ccccc3)CC1)C2` (stereo not shown) [Aricept®, donepezil] the “contact times familiar vs novel, administered separately” value (recognition memory [1]; sub-threshold doses: Aricept 0.5 mg/kg i.p. or 5-HT1A antagonist 0.1 mg/kg p.o., 48 hour inter-trial interval) was “not statistically different” and the “exploration time (FIG. 1)” value (recognition memory [2]) was “relatively similar”.
With `C[C@H](CN(C(=O)C1CCCCC1)c1ccccn1)N1CCN(c2cccc3[nH]ccc23)CC1` [Compound 405, (R)-N-(2-methyl-(4-indolyl-1-piperazinyl)ethyl)-N-(2-pyridinyl)cyclohexane carboxamide] the “exploration time (FIG. 1)” value (recognition memory [2]) was “relatively similar”.
For `COc1ccccc1N1CCN(CC(C(=O)NC(C)(C)C)c2ccccc2)CC1` (racemic) [Compound Y (±)], the Ki (5-HT1A; [5]) is given as 20 nM, the Ki (D2) is given as 14 nM and the Ki (a1) is given as 718 nM.
For `COc1ccccc1N1CCN(CCN(C(=O)c2ccc(I)cc2)c2ccccn2)CC1` [Compound 124], the Ki (5-HT1A; [5]) is listed as 2.6 nM, the Ki (D2) is listed as 19 nM and the Ki (a1) is listed as 35 nM.
In the case of `COc1ccccc1N1CCN(CCCCn2c(=O)ccc(=O)n2-c2ccccc2)CC1` [Compound 106], the Ki (5-HT1A; read-out: Ki (nM) 5-HT1A; Table 1; cited from earlier work) is given as 51 nM and the Ki (5-HT2A) is given as 1450 nM.
For `COc1ccc(C2(O)CCC(N3CCN(Cc4ccccc4)CC3)CC2)cc1` (stereo not shown) [Compound 113], the IC50 (5-HT1A; [6]) is listed as 50 nM.
In the case of `O=C(C1CCCCC1)N(CN1CCN(c2ccccc2OS(=O)(=O)C(F)(F)F)CC1)c1ccccn1` [Compound 123], the Ki (5-HT1A; [4]) is listed as 36 nM.
For `CS(=O)(=O)Oc1ccccc1N1CCN(CN(C(=O)C2CCCCC2)c2ccccn2)CC1` [Compound 122], the Ki (5-HT1A; [4]) is given as 7.25 nM.
For `COc1ccccc1N1CCN(CCCn2c(=O)ccc(=O)n2-c2ccccc2)CC1` [Compound 105], the Ki (5-HT2A) is listed as 2120 nM.
For `CCOc1ccccc1-c1nnc(SCCCN2CCN(c3ccccc3[N+](=O)[O-])CC2)s1` [Compound 137], the Ki (5-HT1A; [3]) is given as 135 nM and the Ki (*1^A) is given as 437 nM.
In the case of `COc1ccccc1N1CCN(CC(C(=O)NC2CCCCC2)c2ccccc2)CC1` (stereo not shown) [Compound 118], the Ki (5-HT1A; [5]) is given as 10 nM and the Ki (a1) is given as 1870 nM.

Source: patent US20080032965A1, “Method for enhancing cognitive function” (priority 2006, published 2008)
